Common to all, as to assay type: cell-based
One experiment concerns IL-17AA/AF. Put plainly: IL-17AA/AF production by PHA-stimulated human PBMC (Luminex BioPlex assay). Particulars: 48 hours, column A, values marked with *, read-out: IC50 (IL-17AA), values marked with * determined by Luminex assay on IL17AA/AF. The procedure: (§1) Analysis of Proliferation of and Cytokine Production by Human PBMC Stimulated with PHA
(§2) Peripheral blood mononuclear cells (PBMC) from healthy human donors were purified using Accuspin™ System-Histopaque-1077 (Sigma) according to the protocol recommended by the manufacturer. Purified PBMC were then washed twice with phosphate-buffered saline (PBS) and resuspended in RPMI1640 culture medium supplemented with 10% dialyzed heat inactivated fetal calf serum, 1.5 mM L-glutamine, 100 U penicillin/ml, and […] (all from PAN Biotech, Aidenbach, Germany). For stimulation, PBMC were seeded at 1×10^5 cells/well, activated with 2 μg/ml phytohaemagglutinin (PHA, Sigma) and incubated with the test compounds for 48 hours. IL-17A, IL-17F and INF-γ were then determined in the culture supernatant using a Luminex BioPlex system, following the manufacturer's instructions (BioRad, Munich, Germany). For screening, compounds were used at 10, 1, 0.1 and 0.01 μM. To determine the IC50, compounds were titrated semilogarithmically.
(§3) Cytokines were determined in the aforementioned culture supernatant using the following methods: IL-17AA/AF was measured using the Luminex BioPlex system (BioRad, Munich, Germany); IL-17AA using the human homodimer IL-17A ELISA Ready Set Go Kit from eBioscience (Frankfurt, Germany); IL-17FF using the human IL-17F ELI-Pair from Hölzel DiagnosticaGmBH (Köln, Germany); and IFN-γ using the OptEIA human IFN-g ELISA from BD Bioscience (Heidelberg, Germany), all following the manufacturer's instructions.

Another experiment relates to IFN-γ. Put plainly: IFN-γ production by PHA-stimulated human PBMC (OptEIA human IFN-g ELISA). To be noted: 48 hours. In outline: (§4)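 PBMC from healthy donors, 1×10^5/well, 2 μg/ml PHA + compound, 48 h. Supernatant cytokine by Luminex bead assay or ELISA as listed. Screen at 10/1/0.1/0.01 μM; IC50 via semilog titration.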
In the next experiment the test system is IL-17FF. The experiment can be described thus: IL-17FF production by PHA-stimulated human PBMC (human IL-17F ELI-Pair). Particulars: 48 hours. The method, boiled down:
as §4

For experiment [1], the system named is PBMC from healthy human donors. Put plainly: T cell proliferation assay (PHA-stimulated human PBMC, BrdU ELISA). To be noted: 48 hours. The method, boiled down: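 Proliferation was quantified by BrdU ELISA 48 hours after starting culture of 1×10⁵ human PBMC per well with test compound and 2 μg/ml phytohaemagglutinin. Cells came from healthy donors via Ficoll separation and were kept in RPMI1640 with 10% dialysed heat-inactivated FCS.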

The next experiment concerns IL-17AA. The experiment can be described thus: IL-17AA production by PHA-stimulated human PBMC (human homodimer IL-17A ELISA). Particulars: 48 hours. The method, then: as §1, §2, §3
[2] abbreviates: PHA-stimulated human PBMC, column C, read-out: IC50 (IFNγ).
The mark [3] stands for this setting: PHA-stimulated human PBMC, column B, read-out: IC50 (IL-17FF).
The mark [4] stands for this setting: PHA-stimulated human PBMC, column D, read-out: IC50 (Tcell proliferation).
[5] abbreviates: PHA-stimulated human PBMC, column A, values without *, read-out: IC50 (IL-17AA).
[6] abbreviates: human PBMC, 2 μg/ml PHA, read-out: C: IC50 (IFNγ).
[7] abbreviates: human PBMC, 2 μg/ml PHA, read-out: A: IC50 (IL-17AA).
The mark [8] stands for this setting: human PBMC, 2 μg/ml PHA, read-out: B: IC50 (IL-17FF).
The mark [9] stands for this setting: human PBMC, 2 μg/ml PHA, read-out: D: IC50 (Tcell proliferation).

The structures appear in SMILES notation. Read-outs that look alike come from different tables or passages of the source.

On to `CNC(=O)c1c(-c2c(F)cccc2Cl)noc1-c1cnn(-c2cccc(F)c2)c1C(F)(F)F` [Example I-62, 3-(2-chloro-6-fluorophenyl)-5-(1-(3-fluorophenyl)-5-(trifluoromethyl)-1H-pyrazol-4-yl)-N-methylisoxazole-4-carboxamide], for which the IC50 in the experiment on IL-17AA/AF lay in the range of 100 to 1000 nM; in the experiment with IFN-γ (setting [2]) it was 10 to 100 nM; with IL-17FF (setting [3]), 10 to 100 nM; in experiment [1] (setting [4]), 10 to 100 nM.
With `O=C(NC1CCCCC1)c1c(-c2c(F)cccc2Cl)noc1-c1cnn(-c2ccccc2F)c1C(F)(F)F` [Example I-18, 3-(2-chloro-6-fluorophenyl)-N-cyclohexyl-5-(1-(2-fluorophenyl)-5-(trifluoromethyl)-1H-pyrazol-4-yl)isoxazole-4-carboxamide], the IC50 in the experiment with IFN-γ (setting [2]) was in the range of 100 to 1000 nM; with IL-17AA (setting [5]) it was 1000 to 10000 nM; in the experiment with IL-17FF (setting [3]) it was 100 to 1000 nM; in experiment [1] (setting [4]) it was 1000 to 10000 nM.
On to `COC(=O)c1c(-c2c(F)cccc2Cl)noc1-c1cnn(-c2ccccc2)c1C(F)(F)F` [Example I-48, methyl 3-(2-chloro-6-fluorophenyl)-5-(1-phenyl-5-(trifluomethyl)1H-pyrazol-4-yl)isoxazole-4-carboxylate], for which the IC50 lay within 10 to 100 nM with IFN-γ (setting [2]), 100 to 1000 nM in the experiment on IL-17AA (setting [5]), 10 to 100 nM in the experiment with IL-17FF (setting [3]) and 10 to 100 nM in experiment [1] (setting [4]).
For `CNC(=O)c1c(-c2c(F)cccc2Cl)noc1-c1cnn(-c2cccc(Cl)c2)c1C(F)(F)F` [Example I-32, 3-(2-chloro-6-fluorophenyl)-5-(1-(3-chlorophenyl)-5-(trifluoromethyl)-1H-pyrazol-4-yl)-N-methylisoxazole-4-carboxamide], the IC50 was 100 to 1000 nM in the experiment with IFN-γ (setting [2]), 100 to 1000 nM in the experiment with IL-17AA (setting [5]), 10 to 100 nM with IL-17FF (setting [3]) and 10 to 100 nM in experiment [1] (setting [4]).
Turning to `Fc1cccc(Cl)c1-c1noc(-c2cnn(-c3cccc(Cl)c3)c2C(F)(F)F)c1-c1nccs1` [Example 5, 3-(2-chloro-6-fluorophenyl)-5-(1-(3-chlorophenyl)-5-(trifluoromethyl)-1H-pyrazol-4-yl)-4-(thiazol-2-yl)isoxazole], the IC50 (in the experiment on IFN-γ (setting [6]); with IL-17AA (setting [7]); with IL-17FF (setting [8]); in experiment [1] (setting [9])) was below 10 nM in each case.
As for `CSC(=O)c1c(-c2c(F)cccc2Cl)noc1-c1cnn(-c2cccc(Cl)c2)c1C(F)(F)F` [Example I-126, S-methyl 3-(2-chloro-6-fluorophenyl)-5-(1-(3-chlorophenyl)-5-(trifluoromethyl)-1H-pyrazol-4-yl)isoxazole-4-carbothioate], the IC50 in the experiment with IL-17AA/AF is 10 to 100 nM; with IFN-γ (setting [2]), below 10 nM; with IL-17FF (setting [3]) it was below 10 nM; in experiment [1] (setting [4]), below 10 nM.
`CON(C)C(=O)c1c(-c2c(F)cccc2Cl)noc1-c1cnn(-c2cccc(Cl)c2)c1C(F)(F)F` [Example I-63, 3-(2-chloro-6-fluorophenyl)-5-(1-(3-chlorophenyl)-5-(trifluoromethyl)-1H-pyrazol-4-yl)-N-methoxy-N-methylisoxazole-4-carboxamide]: the IC50 in the experiment on IFN-γ (setting [2]) lay within 100 to 1000 nM; in the experiment with IL-17AA (setting [5]), 100 to 1000 nM; in the experiment on IL-17FF (setting [3]) it was 10 to 100 nM; in experiment [1] (setting [4]) it was 100 to 1000 nM.
With `Cc1nnc(-c2c(-c3c(F)cccc3Cl)noc2-c2cnn(-c3ccccc3F)c2C(F)(F)F)o1` [Example 11, 2-(3-(2-chloro-6-fluorophenyl)-5-(1-(2-fluorophenyl)-5-(trifluoromethyl)-1H-pyrazol-4-yl)isoxazol-4-yl)-5-methyl-1,3,4-oxadiazole], the IC50 in the experiment with IFN-γ (setting [6]) was 10 to 100 nM; in the experiment with IL-17AA (setting [7]) it was 1000 to 10000 nM; in the experiment with IL-17FF (setting [8]), 100 to 1000 nM; in experiment [1] (setting [9]), 100 to 1000 nM.
As to `COC(=O)c1c(-c2c(F)cccc2Cl)noc1-c1cnn(-c2cccc(F)c2)c1C(F)(F)F` [Example I-5, methyl 3-(2-chloro-6-fluorophenyl)-5-(1-(3-fluorophenyl)-5-(trifluoromethyl)-1H-pyrazol-4-yl)isoxazole-4-carboxylate], the IC50 (in the experiment with IL-17AA/AF; with IFN-γ (setting [2]); with IL-17FF (setting [3]); in experiment [1] (setting [4])) was below 10 nM in each case.
As for `COC(=O)c1c(-c2c(F)cccc2Cl)noc1-c1cnn(-c2cccc(C#N)c2)c1C(F)(F)F` [Example I-12, methyl 3-(2-chloro-6-fluorophenyl)-5-(1-(3-cyanophenyl)-5-(trifluoromethyl)-1H-pyrazol-4-yl)isoxazole-4-carboxylate], the IC50 in the experiment on IFN-γ (setting [2]) is 10 to 100 nM; with IL-17AA (setting [5]) it was 100 to 1000 nM; in the experiment with IL-17FF (setting [3]) it was 10 to 100 nM; in experiment [1] (setting [4]), 10 to 100 nM.
As for `COC(=O)c1c(-c2c(F)cccc2Cl)noc1-c1cnn(-c2cccc(Cl)c2)c1C(F)(F)F` [Example I-11, methyl 3-(2-chloro-6-fluorophenyl)-5-(1-(3-chlorophenyl)-5-(trifluoromethyl)-1H-pyrazol-4-yl)isoxazole-4-carboxylate], the IC50 (with IFN-γ (setting [2]); with IL-17AA (setting [5]); with IL-17FF (setting [3]); in experiment [1] (setting [4])) was below 10 nM throughout.
`Cc1nnc(-c2c(-c3c(F)cccc3Cl)noc2-c2cnn(-c3ccccc3F)c2C(F)(F)F)s1` [Example 12, 3-(2-chloro-6-fluorophenyl)-5-(1-(2-fluorophenyl)-5-(trifluoromethyl)-1H-pyrazol-4-yl)-4-(5-methyl-1,3,4-thiadiazol-2-yl)isoxazole]: the IC50 is 10 to 100 nM with IFN-γ (setting [6]), 100 to 1000 nM with IL-17AA (setting [7]), 10 to 100 nM in the experiment with IL-17FF (setting [8]) and 100 to 1000 nM in experiment [1] (setting [9]).
Turning to `COC(=O)c1csc(-c2c(-c3c(F)cccc3Cl)noc2-c2cnn(-c3cccc(F)c3)c2C(F)(F)F)n1` [Example B-2, methyl 2-(3-(2-chloro-6-fluorophenyl)-5-(1-(3-fluorophenyl)-5-(trifluoromethyl)-1H-pyrazol-4-yl)isoxazol-4-yl)thiazole-4-carboxylate], the IC50 with IFN-γ (setting [6]) is 10 to 100 nM; with IL-17AA (setting [7]), 100 to 1000 nM; with IL-17FF (setting [8]) it was 10 to 100 nM; in experiment [1] (setting [9]), 100 to 1000 nM.
On to `CNC(=O)c1c(-c2c(F)cccc2Cl)noc1-c1cnn(-c2ccc(F)cc2F)c1C(F)(F)F` [Example I-57, 3-(2-chloro-6-fluorophenyl)-5-(1-(2,4-difluorophenyl)-5-(trifluoromethyl)-1H-pyrazol-4-yl)-N-methylisoxazole-4-carboxamide], for which the IC50 (with IFN-γ (setting [2]); with IL-17AA (setting [5]); with IL-17FF (setting [3]); in experiment [1] (setting [4])) was 1000 to 10000 nM each time.
Take `CSC(=O)c1c(-c2c(F)cccc2Cl)noc1-c1cnn(-c2cccc(F)c2)c1C(F)(F)F` [Example I-128, S-methyl 3-(2-chloro-6-fluorophenyl)-5-(1-(3-fluorophenyl)-5-(trifluoromethyl)-1H-pyrazol-4-yl)isoxazole-4-carbothioate]: the IC50 (in the experiment with IL-17AA/AF; in the experiment on IFN-γ (setting [2]); in the experiment with IL-17FF (setting [3]); in experiment [1] (setting [4])) was below 10 nM in each case.
Consider `CNC(=O)c1c(-c2c(F)cccc2Cl)noc1-c1cnn(-c2ccccc2F)c1C(F)(F)F` [Example I-19, 3-(2-chloro-6-fluorophenyl)-5-(1-(2-fluorophenyl)-5-(trifluoromethyl)-1H-pyrazol-4-yl)-N-methylisoxazole-4-carboxamide], for which the IC50 (in the experiment on IFN-γ (setting [2]); in the experiment with IL-17AA (setting [5]); in the experiment on IL-17FF (setting [3]); in experiment [1] (setting [4])) was 1000 to 10000 nM throughout.

The values above are taken from patent US8354436B2 (4SC Discovery GmbH, priority 2011, dated 2013).
